System: MRC 5 fibroblasts
Experiment: Cell biological test of active substance: proliferation of MRC 5 fibroblasts by quantification of cellular DNA after DAPI staining
Assay type: cell-based
Conditions: solutions containing only RC (50 μM) or only chlorite (100 μM)
Experimental: The MRC 5 cells are seeded at 400 cells/cm^2 in a 24 well cell culture plate. The subsequent cultivation is carried out in an incubator 37° C. and 5 vol. % CO2 in a water vapor saturated atmosphere. After 24 hours of precultivation, the culture medium is suctioned off and the cells are washed with PBS.
After 24, 48 and 72 hours, the proliferation of the cells is determined by quantification of the cellular DNA in a fluorometer (Novostar-Company: BMG Labtechnologies) after DAPI staining. Here, the increased fluorescence in the samples is equal to a proliferation of the cells.
The plate to be measured is washed once per well with 500 μl PBS and then 250 μl PBS is placed in each well. 250 μl lysis buffer are added and the cells are lysed in a shaker at the lowest setting for 30 min at RT. Subsequently, 500 μl DAPI solution is added and the plate is left to stand for a further 10 min at RT.
The plate is measured at 355 nm ex. and 460 nm em. in the Novostar. Normally, work is carried out with a gain adjustment of 1400-1600.
The multiple determinations are averaged and the error values are calculated. The data obtained is evaluated graphically.

## chlorite
  effect on the growth behaviour of the fibroblasts: no effect whatsoever
